The values that follow are results of earlier work, collected in publication PMC6686180 (Biochemistry, 2018).

As a reminder, the Kd is a measure of binding affinity in units of concentration.

One series concerns the target FTase. The settings on record: FTase binding; cited from earlier work.
In the next series the test system is SmgGDS-607. The settings on record: non-farnesylated versus farnesylated RhoA; cited from earlier work.

Consider GCVLS, for which the Kd on FTase was 58 nM.

As for “non-farnesylated RhoA: non-farnesylated RhoA of the recent structural study”, the “affinity for SmgGDS-607” value in the series with SmgGDS-607 was “had higher affinity for SmgGDS-607 than farnesylated RhoA”.
